# Test results published in ChEMBL document CHEMBL4699471, “Design and synthesis of purine connected piperazine derivatives as novel inhibitors of Mycobacterium tuberculosis” (2020).
# Test system: Mycobacterium tuberculosis
# Assay: Antimycobacterial activity against Mycobacterium tuberculosis H37Rv assessed as inhibition of bacterial growth by MABA assay
# Format: functional
row,Structure (SMILES),MIC [µM]
1,CC#CCn1c(N2CCN(C(=O)CCc3ccc(F)cc3)CC2)nc2c1c(=O)n(Cc1ccc(F)c(F)c1)c(=O)n2C,43.2
2,CC#CCn1c(N2CCN(C(=O)Nc3ccc(C(F)(F)F)cc3)CC2)nc2c1c(=O)n(Cc1ccc(F)c(F)c1)c(=O)n2C,5.08
3,CC#CCn1c(N2CCN(C(=O)Nc3cccc(C(F)(F)F)c3)CC2)nc2c1c(=O)n(Cc1ccc(F)c(F)c1)c(=O)n2C,20.3
4,CC#CCn1c(N2CCN(C(=O)c3ccccc3C(F)(F)F)CC2)nc2c1c(=O)n(Cc1ccc(F)c(F)c1)c(=O)n2C,41.6
5,C=CCNC(=O)N1CCN(c2nc3c(c(=O)n(Cc4ccc(F)c(F)c4)c(=O)n3C)n2CC#CC)CC1,52.4
6,CC#CCn1c(N2CCN(C(=O)c3ccc(C(F)(F)F)cc3)CC2)nc2c1c(=O)n(Cc1ccc(F)c(F)c1)c(=O)n2C,51.5
7,CC#CCn1c(N2CCN(C(=O)c3csc(Br)n3)CC2)nc2c1c(=O)n(Cc1ccc(F)c(F)c1)c(=O)n2C,40.5
8,CC#CCn1c(N2CCN(C(=S)Nc3ccccc3Br)CC2)nc2c1c(=O)n(Cc1ccc(F)c(F)c1)c(=O)n2C,39
9,CC#CCn1c(N2CCN(C(=O)c3sccc3Cl)CC2)nc2c1c(=O)n(Cc1ccc(F)c(F)c1)c(=O)n2C,43.7
10,CC#CCn1c(N2CCN(C(=O)C3CCC(C(F)(F)F)CC3)CC2)nc2c1c(=O)n(Cc1ccc(F)c(F)c1)c(=O)n2C (stereo not drawn),16.4
11,NNC(=O)c1ccncc1 [ISONIAZID],0.66
12,CC#CCn1c(N2CCN(C(=O)c3cccc4ccccc34)CC2)nc2c1c(=O)n(Cc1ccc(F)c(F)c1)c(=O)n2C,53.3
13,CC#CCn1c(N2CCN(S(=O)(=O)c3cccc(Cl)c3)CC2)nc2c1c(=O)n(Cc1ccc(F)c(F)c1)c(=O)n2C,12.5
14,CC#CCn1c(N2CCN(S(=O)(=O)c3ccccc3)CC2)nc2c1c(=O)n(Cc1ccc(F)c(F)c1)c(=O)n2C,44
15,CC#CCn1c(N2CCN(C(=O)c3c(F)cc(OC)cc3F)CC2)nc2c1c(=O)n(Cc1ccc(F)c(F)c1)c(=O)n2C,41.8
16,CC#CCn1c(N2CCN(C(=S)Nc3c(F)cccc3Cl)CC2)nc2c1c(=O)n(Cc1ccc(F)c(F)c1)c(=O)n2C,40.6
17,CC#CCn1c(N2CCN(C(=O)C3Cc4ccccc4N3)CC2)nc2c1c(=O)n(Cc1ccc(F)c(F)c1)c(=O)n2C (stereo not drawn),43.6

row,Structure (SMILES),MIC [µM]
1,CC#CCn1c(N2CCN(C(=O)Nc3ccc(Cl)cc3)CC2)nc2c1c(=O)n(Cc1ccc(F)c(F)c1)c(=O)n2C,41
2,CC#CCn1c(N2CCN(C(=S)Nc3ccc(Cl)cc3)CC2)nc2c1c(=O)n(Cc1ccc(F)c(F)c1)c(=O)n2C,34.5
3,CC#CCn1c(N2CCN(C(=O)c3nccnc3Cl)CC2)nc2c1c(=O)n(Cc1ccc(F)c(F)c1)c(=O)n2C,44
4,CC#CCn1c(N2CCN(C(=O)C3CCC3)CC2)nc2c1c(=O)n(Cc1ccc(F)c(F)c1)c(=O)n2C,49
5,CC#CCn1c(N2CCN(C(=O)C34CC5CC(CC(C5)C3)C4)CC2)nc2c1c(=O)n(Cc1ccc(F)c(F)c1)c(=O)n2C,43.4
6,CC#CCn1c(N2CCN(C(=O)c3cccnc3C(F)(F)F)CC2)nc2c1c(=O)n(Cc1ccc(F)c(F)c1)c(=O)n2C,41.6
7,O=C(O)c1cn(C2CC2)c2cc(N3CCNCC3)c(F)cc2c1=O [CIPROFLOXACIN],0.94
8,CC[C@@H](CO)NCCN[C@@H](CC)CO [ETHAMBUTOL],7.63
9,CC#CCn1c(N2CCN(C(=O)c3cccc(F)c3)CC2)nc2c1c(=O)n(Cc1ccc(F)c(F)c1)c(=O)n2C,45.4
10,CC#CCn1c(N2CCN(C(=O)Cc3ccc(F)cc3)CC2)nc2c1c(=O)n(Cc1ccc(F)c(F)c1)c(=O)n2C,44.3
11,CC#CCn1c(N2CCN(C(=O)C3CCCCN3C(=O)OC(C)(C)C)CC2)nc2c1c(=O)n(Cc1ccc(F)c(F)c1)c(=O)n2C (stereo not drawn),39.1
12,CC#CCn1c(N2CCN(C(=O)COc3ccccc3)CC2)nc2c1c(=O)n(Cc1ccc(F)c(F)c1)c(=O)n2C,44.5
13,CC#CCn1c(N2CCN(C(=O)Nc3ccccc3Cl)CC2)nc2c1c(=O)n(Cc1ccc(F)c(F)c1)c(=O)n2C,49.2
14,CC#CCn1c(N2CCN(C(=S)Nc3ccccc3Cl)CC2)nc2c1c(=O)n(Cc1ccc(F)c(F)c1)c(=O)n2C,41.9
15,CC#CCn1c(N2CCN(C(=O)Nc3ccc(SC)cc3)CC2)nc2c1c(=O)n(Cc1ccc(F)c(F)c1)c(=O)n2C,10.3
16,CC#CCn1c(N2CCN(C(=S)Nc3cccc(Cl)c3)CC2)nc2c1c(=O)n(Cc1ccc(F)c(F)c1)c(=O)n2C,7.17
